Test results as given in patent US9815796B2 (Merck Sharp & Dohme Corp., priority 2013, dated 2017).
Where two headings read alike, the source gives them in different places.

Key:
Rhesus PDE2A3 = Rhesus PDE2A3 (Macaca mulatta, UniProt B3VTJ2); test: PDE2 fluorescence polarization (IMAP FP) inhibition assay, rhesus enzyme; format: biochemical, rhesus macaque
Procedure, shortened: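 IMAP FP (mP from parallel and perpendicular fluorescence against substrate-only control) was read ≥1 h after adding binding reagent. The preceding 60 min room-temperature reaction contained FAM-cAMP (50 nM) and cGMP (1 uM) in pH 7.2 Tris buffer with MgCl2 and DTT. Enzyme was supernatant of sonicated AD293 cells expressing rhesus PDE2A3; compounds were 3-fold titrated, DMSO 1% final.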

human PDE2A1 = human PDE2A1 (Homo sapiens (Human), UniProt O00408); test: IMAP FP PDE selectivity panel, human PDE2A1; format: biochemical
Procedure, shortened: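 IMAP FP format: substrate 50 nM FAM-cAMP plus 1000 nM cGMP, enzyme (insect-cell GST-tagged human PDE2A1) at ~20% conversion, 60 min reaction at room temperature. Apparent inhibition constants calculated from parallel/perpendicular fluorescence with KM 10,000 nM.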

[1] = Rhesus PDE2, Lab A, read-out: Rhesus PDE2 Ki (nM) - Lab A
[2] = Rhesus PDE2, Lab B, read-out: Rhesus PDE2 Ki (nM) - Lab B
[3] = Human PDE2, Lab B, read-out: Human PDE2 Ki (nM) - Lab B
[4] = Human PDE2, Lab A, read-out: Human PDE2 Ki (nM) - Lab A

human PDE2A1, sequence (O00408 other isoform, or with tags, fused parts or gaps): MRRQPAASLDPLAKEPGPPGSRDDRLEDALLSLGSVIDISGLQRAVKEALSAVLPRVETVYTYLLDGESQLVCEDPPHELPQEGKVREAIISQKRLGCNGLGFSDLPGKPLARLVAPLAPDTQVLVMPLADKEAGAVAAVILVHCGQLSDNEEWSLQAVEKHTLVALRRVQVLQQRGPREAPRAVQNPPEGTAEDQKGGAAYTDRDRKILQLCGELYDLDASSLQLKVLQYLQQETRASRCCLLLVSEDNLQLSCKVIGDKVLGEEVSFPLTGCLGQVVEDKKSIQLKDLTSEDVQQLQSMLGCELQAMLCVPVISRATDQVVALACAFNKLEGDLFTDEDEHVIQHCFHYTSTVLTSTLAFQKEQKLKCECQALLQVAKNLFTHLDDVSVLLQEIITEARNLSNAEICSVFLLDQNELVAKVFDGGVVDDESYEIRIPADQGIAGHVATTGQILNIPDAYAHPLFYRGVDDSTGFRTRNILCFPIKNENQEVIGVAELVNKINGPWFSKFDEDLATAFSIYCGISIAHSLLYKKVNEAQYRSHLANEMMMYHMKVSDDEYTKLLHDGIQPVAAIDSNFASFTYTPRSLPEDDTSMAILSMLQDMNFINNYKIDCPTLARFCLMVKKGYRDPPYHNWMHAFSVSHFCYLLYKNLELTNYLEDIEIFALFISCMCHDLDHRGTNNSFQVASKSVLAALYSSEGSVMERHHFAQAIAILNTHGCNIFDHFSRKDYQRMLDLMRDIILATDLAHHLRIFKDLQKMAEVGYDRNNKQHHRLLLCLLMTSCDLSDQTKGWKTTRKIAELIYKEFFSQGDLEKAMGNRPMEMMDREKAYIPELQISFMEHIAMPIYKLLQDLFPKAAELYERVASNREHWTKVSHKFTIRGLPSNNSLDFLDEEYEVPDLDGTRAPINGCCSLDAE
Rhesus PDE2A3, sequence (B3VTJ2 1-941): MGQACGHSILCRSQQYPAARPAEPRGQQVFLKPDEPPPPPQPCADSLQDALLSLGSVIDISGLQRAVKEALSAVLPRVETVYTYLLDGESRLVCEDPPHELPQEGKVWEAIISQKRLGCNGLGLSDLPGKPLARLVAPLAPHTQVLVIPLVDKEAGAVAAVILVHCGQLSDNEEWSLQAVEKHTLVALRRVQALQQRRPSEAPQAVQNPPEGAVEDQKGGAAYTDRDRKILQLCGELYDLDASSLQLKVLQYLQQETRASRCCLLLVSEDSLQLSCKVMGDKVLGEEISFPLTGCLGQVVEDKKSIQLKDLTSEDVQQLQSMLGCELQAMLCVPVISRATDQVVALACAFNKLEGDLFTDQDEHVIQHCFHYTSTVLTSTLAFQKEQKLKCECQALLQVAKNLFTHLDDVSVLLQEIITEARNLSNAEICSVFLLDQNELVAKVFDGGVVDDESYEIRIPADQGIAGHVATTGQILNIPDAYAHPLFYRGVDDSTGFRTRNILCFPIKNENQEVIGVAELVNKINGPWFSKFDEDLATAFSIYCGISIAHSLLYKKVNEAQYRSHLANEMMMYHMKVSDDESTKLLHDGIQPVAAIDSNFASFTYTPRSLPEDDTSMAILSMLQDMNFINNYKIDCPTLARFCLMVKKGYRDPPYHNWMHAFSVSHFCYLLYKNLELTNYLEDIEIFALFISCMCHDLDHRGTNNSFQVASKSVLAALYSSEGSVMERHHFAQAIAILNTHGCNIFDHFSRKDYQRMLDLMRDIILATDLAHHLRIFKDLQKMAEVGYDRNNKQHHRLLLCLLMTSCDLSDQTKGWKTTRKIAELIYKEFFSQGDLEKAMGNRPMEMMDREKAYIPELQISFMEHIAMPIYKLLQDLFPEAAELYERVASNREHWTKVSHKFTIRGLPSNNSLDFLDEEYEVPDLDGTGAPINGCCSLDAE

Structure (SMILES) | Ki (Rhesus PDE2A3; [1]) | Ki (Rhesus PDE2A3; [2]) | Ki (human PDE2A1; [3]) | Ki (human PDE2A1; [4])
O=C(N[C@@H](CC(F)(F)F)c1ccc(C(F)(F)F)cc1)c1cc(=O)[nH]c(-c2ccccc2)n1 [Example 366, 6-oxo-2-phenyl-N-{(1S)-3,3,3-trifluoro-1-[4-(trifluoromethyl)phenyl]propyl}-1,6-dihydropyrimidine-4-carboxamide] | 132 nM | 458 nM | 386 nM | 
Cc1nc(C(=O)NC(C)c2ccc(-c3ccccc3)cc2)cc(=O)[nH]1 (single isomer, unassigned) [Example 307, (R)- or (S)-N-(1-biphenyl-4-ylethyl)-2-methyl-6-oxo-1,6-dihydropyrimidine-4-carboxamide] | 17 nM |  |  | 16 nM
CC(C)(NC(=O)c1cc(=O)[nH]c(-c2ccccc2)n1)c1ccc(SC(F)(F)F)c(F)c1 [Example 361, N-(1-{3-fluoro-4-[(trifluoromethyl)sulfanyl]phenyl}-1-methylethyl)-6-oxo-2-phenyl-1,6-dihydropyrimidine-4-carboxamide] | ~78 nM | 99 nM | 81 nM | 
CC[C@@H](NC(=O)c1cc(=O)[nH]c(C2CC2)n1)c1ccc(C(F)(F)F)c(F)c1 [Example 254, 2-cyclopropyl-N-{(1R)-1-[3-fluoro-4-(trifluoromethyl)phenyl]propyl}-6-oxo-1,6-dihydropyrimidine-4-carboxamide] | 17 nM | 23 nM | 22 nM | ~13 nM
CC(C)(NC(=O)c1cc(=O)[nH]c(-c2ncccn2)n1)c1ccc(C(F)(F)F)c(F)c1 [Example 82, N-{1-[3-fluoro-4-(trifluoromethyl)phenyl]-1-methylethyl}-6-oxo-1,6-dihydro-2,2′-bipyrimidine-4-carboxamide] | 153 nM |  |  | 82 nM
Cc1nc(C(=O)NC(C)(C)c2ccc(C(F)(F)F)cc2F)cc(=O)[nH]1 [Example 596, N-{1-[2-fluoro-4-(trifluoromethyl)phenyl]-1-methylethyl}-2-methyl-6-oxo-1,6-dihydropyrimidine-4-carboxamide] |  | 30 nM | 22 nM | 
COc1ccc(Cc2nc(C(=O)N[C@@H](c3ccc(C(F)(F)F)cc3)C3CC3)cc(=O)[nH]2)cc1 [Example 481, N-{(R)-cyclopropyl[4-(trifluoromethyl)phenyl]methyl}-2-(4-methoxybenzyl)-6-oxo-1,6-dihydropyrimidine-4-carboxamide] |  | 1.9 nM | 1.9 nM | 
O=C(NC1(c2ccc(C(F)(F)F)cc2)CC1)c1cc(=O)[nH]c(-c2ncccn2)n1 [Example 284, 6-oxo-N-{1-[4-(trifluoromethyl)phenyl]cyclopropyl}-1,6-dihydro-2,2′-bipyrimidine-4-carboxamide] | 43 nM |  |  | 36 nM
COc1ccc(Cc2nc(C(=O)N[C@@H](c3ccc(SC(F)(F)F)c(F)c3)C3CC3)cc(=O)[nH]2)cc1F [Example 520, N-[(R)-cyclopropyl{3-fluoro-4-[(trifluoromethyl)sulfanyl]phenyl}methyl]-2-(3-fluoro-4-methoxybenzyl)-6-oxo-1,6-dihydropyrimidine-4-carboxamide] |  | 3.8 nM | 3.6 nM | 
CC(C)(NC(=O)c1cc(=O)[nH]c(-c2ccccc2)n1)c1ccc(Br)cc1 [Example 340, N-[1-(4-bromophenyl)-1-methylethyl]-6-oxo-2-phenyl-1,6-dihydropyrimidine-4-carboxamide] | 49 nM | 109 nM | 83 nM | 
Cc1nc(C(=O)N[C@@H](c2ccc(C(F)(F)F)c(F)c2)C(C)C)cc(=O)[nH]1 [Example 240, N-{(1R)-1-[3-fluoro-4-(trifluoromethyl)phenyl]-2-methylpropyl}-2-methyl-6-oxo-1,6-dihydropyrimidine-4-carboxamide] | 14 nM |  |  | 8.8 nM
Cc1nc(C(=O)NC(C)(C)c2ccc(OC(F)(F)F)c(F)c2)cc(=O)[nH]1 [Example 48, N-{1-[3-fluoro-4-(trifluoromethoxy)phenyl]-1-methylethyl}-2-methyl-6-oxo-1,6-dihydropyrimidine-4-carboxamide] | 235 nM |  | 80 nM | 127 nM
CC(C)(C)[C@@H](NC(=O)c1cc(=O)[nH]c(-c2ncccn2)n1)c1ccc(OC(F)F)cc1 [Example 450, N-{(1R)-1-[4-(difluoromethoxy)phenyl]-2,2-dimethylpropyl}-6-oxo-1,6-dihydro-2,2′-bipyrimidine-4-carboxamide] |  | 23 nM | 21 nM | 

The next lines start with the values.

Ki (Rhesus PDE2A3; [1]) | Ki (Rhesus PDE2A3; [2]) | Ki (human PDE2A1; [3]) | Ki (human PDE2A1; [4]) | Structure (SMILES)
 | 11 nM | 10 nM |  | Cc1nc(C(=O)NC(C)(C)c2ccc(C(F)(F)F)cc2Cl)cc(=O)[nH]1 [Example 593, N-{1-[2-chloro-4-(trifluoromethyl)phenyl]-1-methylethyl}-2-methyl-6-oxo-1,6-dihydropyrimidine-4-carboxamide]
1650 nM |  |  | 1140 nM | CCc1nc(C(=O)N[C@@H](C)c2ccc(C(F)(F)F)cc2)cc(=O)[nH]1 [Example 135, 2-ethyl-6-oxo-N-{(1S)-1-[4-(trifluoromethyl)phenyl]ethyl}-1,6-dihydropyrimidine-4-carboxamide]
 | 0.85 nM | 0.79 nM |  | COc1ccc(Cc2nc(C(=O)N[C@@H](c3ccc(C(F)(F)F)c(F)c3)C(C)(C)C)cc(=O)[nH]2)cc1 [Example 466, N-{(1R)-1-[3-fluoro-4-(trifluoromethyl)phenyl]-2,2-dimethylpropyl}-2-(4-methoxybenzyl)-6-oxo-1,6-dihydropyrimidine-4-carboxamide]
26 nM |  |  | 17 nM | Cc1nc(C(=O)N[C@@H](c2ccc(C(F)(F)F)c(F)c2)C2CC2)cc(=O)[nH]1 [Example 68, N-{(R)-cyclopropyl[3-fluoro-4-(trifluoromethyl)phenyl]methyl}-2-methyl-6-oxo-1,6-dihydropyrimidine-4-carboxamide]
60 nM |  |  | 41 nM | CC(NC(=O)c1cc(=O)[nH]c(-c2ncccn2)n1)c1ccc(Br)cc1 (stereo not shown) [Example 85, N-[1-(4-bromophenyl)ethyl]-6-oxo-1,6-dihydro-2,2′-bipyrimidine-4-carboxamide]
 | 2.2 nM | 1.8 nM |  | COc1ccc(Cc2nc(C(=O)N[C@@H](c3ccc(C(F)(F)F)c(F)c3)C(C)C)cc(=O)[nH]2)cc1F [Example 514, 2-(3-fluoro-4-methoxybenzyl)-N-{(1R)-1-[3-fluoro-4-(trifluoromethyl)phenyl]-2-methylpropyl}-6-oxo-1,6-dihydropyrimidine-4-carboxamide]
 | 1.1 nM | 1 nM |  | COc1ccc(Cc2nc(C(=O)N[C@@H](c3ccc(SC(F)(F)F)cc3)C(C)(C)C)cc(=O)[nH]2)cc1F [Example 507, N-[(1R)-2,2-dimethyl-1-{4-[(trifluoromethyl)sulfanyl]phenyl}propyl]-2-(3-fluoro-4-methoxybenzyl)-6-oxo-1,6-dihydropyrimidine-4-carboxamide]
14 nM |  |  | 12 nM | O=C(NC1(c2ccc(C(F)(F)F)cc2)CC1)c1cc(=O)[nH]c(C2CC2)n1 [Example 292, 2-cyclopropyl-6-oxo-N-{1-[4-(trifluoromethyl)phenyl]cyclopropyl}-1,6-dihydropyrimidine-4-carboxamide]
 | 2.1 nM | 1.7 nM |  | CC(C)(C)[C@@H](NC(=O)c1cc(=O)[nH]c(C2CC2)n1)c1ccc(C(F)(F)F)cc1F [Example 445, 2-cyclopropyl-N-{(1R)-1-[2-fluoro-4-(trifluoromethyl)phenyl]-2,2-dimethylpropyl}-6-oxo-1,6-dihydropyrimidine-4-carboxamide]
25 nM | 33 nM | 39 nM | ~9.2 nM | C[C@@H](NC(=O)c1cc(=O)[nH]c(-c2ncccn2)n1)c1cc(F)c(C(F)(F)F)c(F)c1 [Example 108, N-{(1R)-1-[3,5-difluoro-4-(trifluoromethyl)phenyl]ethyl}-6-oxo-1,6-dihydro-2,2′-bipyrimidine-4-carboxamide]
4.3 nM |  |  | 5.5 nM | CC[C@@H](NC(=O)c1cc(=O)[nH]c(C2CC2)n1)c1ccc(SC(F)(F)F)cc1 [Example 236, 2-cyclopropyl-6-oxo-N-[(1R)-1-{4-[(trifluoromethyl)sulfanyl]phenyl}propyl]-1,6-dihydropyrimidine-4-carboxamide]
1140 nM |  |  | 663 nM | Cc1nc(C(=O)NC(C)c2ccc(C(F)(F)F)cc2C)cc(=O)[nH]1 (stereo not shown) [Example 25, 2-methyl-N-{1-[2-methyl-4-(trifluoromethyl)phenyl]ethyl}-6-oxo-1,6-dihydropyrimidine-4-carboxamide]
 | 9.8 nM | 9.3 nM |  | O=C(N[C@@H](c1ccc(SC(F)(F)F)c(F)c1)C1CC1)c1cc(=O)[nH]c(-c2ncccn2)n1 [Example 452, N-[(R)-cyclopropyl{3-fluoro-4-[(trifluoromethyl)sulfanyl]phenyl}meth-yl]-6-oxo-1,6-dihydro-2,2′-bipyrimidine-4-carboxamide]
11 nM |  |  | 7.8 nM | Cc1nc(C(=O)N[C@@H](c2ccc(SC(F)(F)F)c(F)c2)C2CC2)cc(=O)[nH]1 [Example 55, N-[(R)-cyclopropyl{3-fluoro-4-[(trifluoromethyl)sulfanyl]phenyl}methyl]-2-methyl-6-oxo-1,6-dihydropyrimidine-4-carboxamide]
 | 10 nM | 8.2 nM |  | Cc1nc(C(=O)N[C@@H](c2ccc(CC(F)(F)F)cc2)C(C)(C)C)cc(=O)[nH]1 [Example 61, (R)-N-(2,2-dimethyl-1-(4-(2,2,2-trifluoroethyl)phenyl)propyl)-2-methyl-6-oxo-1,6-dihydropyrimidine-4-carboxamide]
